# From patent publication US7022711B2, “2-(4-Pyridyl)amino-6-dialkoxyphenyl-pyrido[2,3-d]pyrimidin-7-ones” (Warner-Lambert Company, priority 2000, dated 2006)
# Columns and labels:
# PDGFR = target: T1, PDGFR (Mus musculus, UniProt P05622); test: Kinase inhibition assay (DELFIA), PDGF; assay type: biochemical; details: 40 μM ATP, kinase domain 20 nM
# T1 construct: The kinase domains from FGFR-1, VEGFR-2, Lck, and PDGF were purified from baculoviral vectors expression systems and were used in the assays at 20 nM
# Experimental: The inhibition activity of the compounds in Examples 8, 9, 10, 11, and 12 and Reference Compounds A and B were evaluated using the Dissociated Enhanced Lanthanide Fluoroimmuno Assay (DELFIA) (Frank Loganzo and Carolyn Hardy. A sensitive, time-resolved fluorometric assay for the detection of inhibitors of phosphotyrosine kinases. American Biotechnology Laboratory, December 1998). DELFIA plates (EG&G Wallac, Gaithersburg, Md.) were coated overnight with Poly Glu Tyr (4:1) (Sigma, St. Louis, Mo.) at room temperature, washed (DELFIA wash reagent, EG&G Wallac), and spotted with 1 μL inhibitor dilution or DMSO carrier control per well. In some cases, kinase was autophosphorylated prior to analysis by incubating 45 minutes at 4° C. in the presence of 4 mM ATP and 25 mM MgCl2. A typical 100 μL kinase assay reaction contained 20 mM Tris (pH 7.5), 20 mM MgCl2, 50 mM NaCl, 5 mM DTT, and protease inhibitors (Mini EDTA-free protease inhibitor cocktail tablets, Boehringer Mannheim, Indianapolis, Ind.), 40 μM ATP, and an appropriate concentration of inhibitor. The reaction was allowed to continue for 30 minutes at room temperature. […] One hundred microliter DELFIA enhancement solution (EG&G Wallac) was added and time-resolved fluorescence of the reactions determined using a VICTOR2 1420 multilable counter (EG&G Wallac). […]
# Lck = target: T2, Lck (Homo sapiens, UniProt P06239); test: Kinase inhibition assay (DELFIA), Lck; assay type: biochemical; details: 40 μM ATP, kinase domain 20 nM
# T2 construct: The kinase domains from FGFR-1, VEGFR-2, Lck, and PDGF were purified from baculoviral vectors expression systems; made in house
# Experimental: (§1) The inhibition activity of the compounds in Examples 8, 9, 10, 11, and 12 and Reference Compounds A and B were evaluated using the Dissociated Enhanced Lanthanide Fluoroimmuno Assay (DELFIA) (Frank Loganzo and Carolyn Hardy. A sensitive, time-resolved fluorometric assay for the detection of inhibitors of phosphotyrosine kinases. American Biotechnology Laboratory, December 1998). DELFIA plates (EG&G Wallac, Gaithersburg, Md.) were coated overnight with Poly Glu Tyr (4:1) (Sigma, St. Louis, Mo.) at room temperature, washed (DELFIA wash reagent, EG&G Wallac), and spotted with 1 μL inhibitor dilution or DMSO carrier control per well. In some cases, kinase was autophosphorylated prior to analysis by incubating 45 minutes at 4° C. in the presence of 4 mM ATP and 25 mM MgCl2. A typical 100 μL kinase assay reaction contained 20 mM Tris (pH 7.5), 20 mM MgCl2, 50 mM NaCl, 5 mM DTT, and protease inhibitors (Mini EDTA-free protease inhibitor cocktail tablets, Boehringer Mannheim, Indianapolis, Ind.), 40 μM ATP, and an appropriate concentration of inhibitor. The reaction was allowed to continue for 30 minutes at room temperature. Plates were washed, blocked 30 minutes at room temperature (0.5% bovine serum albumin in DELFIA Assay Buffer, EG&G Wallac), and washed. One hundred microliter europium-conjugated antiphosphotyrosine antibody in DELFIA assay buffer was added to each well. Plates were incubated for 1 hour and decanted. One hundred microliter DELFIA enhancement solution (EG&G Wallac) was added and time-resolved fluorescence of the reactions determined using a VICTOR2 1420 multilable counter (EG&G Wallac). Compounds were tested from 10 through 0.0001 μM. c-Src was (Upstate Biotechnology, Lake Placid, N.Y.) was used at 3 units per reaction. The kinase domains from FGFR-1, VEGFR-2, Lck, and PDGF were purified from baculoviral vectors expression systems and were used in the assays at 20 nM.
# FGFR-1 = target: T3, FGFR-1 (Homo sapiens, UniProt P11362); test: Kinase inhibition assay (DELFIA), FGFr; assay type: biochemical; details: 40 μM ATP, kinase domain 20 nM
# T3 construct: The kinase domains from FGFR-1, VEGFR-2, Lck, and PDGF were purified from baculoviral vectors expression systems; made in house
# Experimental: as §1
# A90 human ovarian cells = test: A90 tumor cell proliferation (Sulphorhodamine B); assay type: cell-based; details: 4 days with compound
# Experimental: Human umbilical vein endothelial cells (HUVECs) (Clonetics, Palo Alto, Calif.) were seeded at 2000 cells per well in growth medium containing 2% serum (EGM, Clonetics) and allowed to attach overnight (37° C., 5% CO2, 100% humidity). C6 rat glioma cells (ATCC) were seeded at 600 cells per well and incubated in F10 medium (GIBCO, Gaithersburg, Md.) supplemented with 15% horse serum, 2.5% fetal bovine serum, and 1 mM glutamine. A90 human ovarian cells (Dr. Kent Crickard, SUNY/AB Medical School) were seeded at 600 cells per well in RPMI1640 (GIBCO) plus 10% fetal bovine serum. Plates were incubated overnight (37° C., 5% CO2, 100% humidity) to allow the cells to attach. Test compound dilutions were added to the appropriate wells, and the incubation was continued for 4 additional days. Monolayers were fixed in 10% trichloroacetic acid (30 minutes at 4° C.), washed with distilled water, and stained with Sulphorhodamine B (0.075% in 1% acetic acid) (Sigma). Plates were washed in 1% acetic acid, and the bound dye was solubilized in 100 μL unbuffered Tris base. Absorbance was measured at 540 nm using a reference filter wavelength of 630 nm. Inhibitor potency (IC50) versus cellular proliferation was determined, and endothelial cell selectivity was assessed by comparing the inhibition of HUVEC proliferation to A90 and C6 tumor cell proliferation (Table 3).
# [1] = system: Mammary Adenocarcinoma M16/C; test: Antitumor activity in vivo, M16/C mammary tumor model; details: for CRs, complete regression / T-C (Days), tumor growth delay to 750 mg / T/C (%), median treated tumor mass/median control tumor mass / NSD, nonspecific deaths/total in treatment group: D7-15; for T/C (%), median treated tumor mass/median control tumor mass: 3 days after the end of therapy
# Experimental: The anticancer efficacy of the compound of Example 8 was evaluated using a murine mammary […] tumor model, M16/C. This highly vascularized tumor is very aggressive with a doubling time of 1.5 days. Tumor fragments were implanted by trocar fragment in the right axilla of C3H mice on Day 0. The efficacy of treatment was assessed both in an advanced stage model (test compound treatment for nine consecutive days after tumors had reached 100 mg). The compound in Example 8 was dosed once a day over the treatment period by oral gavage in 0.05 M sodium lactate buffer, pH 4. Animals were allowed to continue off therapy until the tumors reached the evaluable size (750 mg). Animal weights were determined throughout the study to provide an estimate of test compound toxicity. A mean weight loss >10% (3–4 g) for any treatment group is an indication of host toxicity. Anticancer activity was evaluated using two methods. The first is %T/C where T=median mass of treated tumors 3 days after the end of therapy, and C=median mass of the control group at that same time point. The highest degree of antitumor activity using this assessment occurs when T=0, and %T/C=0%. […] The second method uses tumor growth delay (T−C), where T=the days for the median treated tumor to reach an evaluable size (750 mg), and C=days for control tumors to reach that same size.
# T2 sequence (P06239 245-498 limits assumed, species assumed): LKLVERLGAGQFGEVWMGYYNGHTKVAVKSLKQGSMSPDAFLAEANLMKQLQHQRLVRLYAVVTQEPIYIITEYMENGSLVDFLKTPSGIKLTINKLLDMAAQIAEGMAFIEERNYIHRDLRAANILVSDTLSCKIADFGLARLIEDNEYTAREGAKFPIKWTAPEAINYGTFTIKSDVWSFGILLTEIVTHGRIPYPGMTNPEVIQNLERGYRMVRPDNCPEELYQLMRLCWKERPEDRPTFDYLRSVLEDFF
# T3 sequence (P11362 478-767 limits assumed, species assumed): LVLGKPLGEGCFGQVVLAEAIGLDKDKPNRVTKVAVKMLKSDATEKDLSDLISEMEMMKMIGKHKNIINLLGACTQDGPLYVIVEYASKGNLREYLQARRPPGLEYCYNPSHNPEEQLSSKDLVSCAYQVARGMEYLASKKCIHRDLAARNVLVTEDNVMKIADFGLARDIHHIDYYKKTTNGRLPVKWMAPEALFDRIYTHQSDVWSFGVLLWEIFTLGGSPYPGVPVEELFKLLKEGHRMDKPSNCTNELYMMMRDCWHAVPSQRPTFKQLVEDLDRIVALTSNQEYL
# T1 sequence (P05622 553-1098): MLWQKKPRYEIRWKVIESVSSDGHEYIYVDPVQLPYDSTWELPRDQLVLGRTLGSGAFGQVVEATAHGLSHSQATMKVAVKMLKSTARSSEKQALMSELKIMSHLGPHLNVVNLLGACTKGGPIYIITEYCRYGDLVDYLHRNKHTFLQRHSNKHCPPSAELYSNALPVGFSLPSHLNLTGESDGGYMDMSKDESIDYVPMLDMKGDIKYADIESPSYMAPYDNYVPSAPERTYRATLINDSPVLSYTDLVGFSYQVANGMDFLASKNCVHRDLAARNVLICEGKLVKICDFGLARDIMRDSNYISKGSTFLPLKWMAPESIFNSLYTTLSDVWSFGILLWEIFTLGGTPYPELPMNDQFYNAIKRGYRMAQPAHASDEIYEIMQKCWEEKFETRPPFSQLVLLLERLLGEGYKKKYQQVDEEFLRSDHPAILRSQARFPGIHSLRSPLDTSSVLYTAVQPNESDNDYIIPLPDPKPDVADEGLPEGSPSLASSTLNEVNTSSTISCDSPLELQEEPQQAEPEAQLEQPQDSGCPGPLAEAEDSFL
substance,measurement,setting,value
"6-(3,5-Dimethoxy-phenyl)-8-ethyl-2-(pyridin-4-ylamino)-8H-pyrido[2,3-d]pyrimidin-7-one [Example 8]",IC50,PDGFR,2.54 µM
same,Ki,Lck,1.79 µM
same,IC50,FGFR-1,0.009 µM
same,IC50,A90 human ovarian cells,2.92 µM
same,"CRs, complete regression","[1]; 5 mg/kg, oral",0/6
same,"T-C (Days), tumor growth delay to 750 mg","[1]; 5 mg/kg, oral",4.3 days
same,"T/C (%), median treated tumor mass/median control tumor mass","[1]; 5 mg/kg, oral",39%
same,"NSD, nonspecific deaths/total in treatment group","[1]; 10 mg/kg, oral",0/6
same,"T-C (Days), tumor growth delay to 750 mg","[1]; 10 mg/kg, oral",7.9 days
same,"T/C (%), median treated tumor mass/median control tumor mass","[1]; 10 mg/kg, oral",15%
same,"CRs, complete regression","[1]; 20 mg/kg, oral",4/6
same,"NSD, nonspecific deaths/total in treatment group","[1]; 20 mg/kg, oral",0/6
same,"T-C (Days), tumor growth delay to 750 mg","[1]; 20 mg/kg, oral",10.7 days
same,"T/C (%), median treated tumor mass/median control tumor mass","[1]; 20 mg/kg, oral",0%
same,"CRs, complete regression","[1]; 40 mg/kg, oral",6/6
same,"NSD, nonspecific deaths/total in treatment group","[1]; 40 mg/kg, oral",0/6
same,"T-C (Days), tumor growth delay to 750 mg","[1]; 40 mg/kg, oral",12.4 days
same,"T/C (%), median treated tumor mass/median control tumor mass","[1]; 40 mg/kg, oral",0%
same,regression of tumors below the level of palpation,[1]; 40 and 20 mg/kg dose levels,complete regressions
same,tumor growth delay (T−C) relative to duration of therapy,[1]; 40 and 20 mg/kg dose levels,greater than the duration of therapy
same,anticancer activity (%T/C),[1]; all four doses tested,meaningful anticancer activity
same,tolerability,"[1]; all four doses tested, oral, nine consecutive days",well-tolerated
